Experiment [1] deals with T1, Human GPR40 (Homo sapiens, UniProt O14842). Briefly: FLIPR assay, agonist-induced calcium mobilization in GPR40/CHO NFAT BLA cells. The format is cell-based. More on the design: expressed in transfected cells. The protocol: (§1) Human and mouse GPR40 stable cell-lines were generated in CHO cells stably expressing NFAT BLA (Beta-lactamase). A human GPR40 stable cell-line was generated in HEK cells stably expressing the acquorin expressing reporter. The expression plasmids were transfected using lipofectamine (Life Technologies) following manufacturer's instructions. Stable cell-lines were generated following drug selection.
FLIPR (Fluorimetric Imaging Plate Reader, Molecular Devices) assays were performed to measure agonist-induced calcium mobilization of the stable clones. For the FLIPR assay, one day before assay, GPR40/CHO NFAT BLA cells were seeded into black-wall-clear-bottom 384-well plates (Costar) at 1.4×10e4 cells/20 μL medium/well. The cells were incubated with 20 μl/well of the assay buffer (HBSS, 0.1% BSA, 20 mM HEPES, 2.5 mM probenecid, pH 7.4) containing 8 μM fluo-4, AM, 0.08% pluronic acid at room temperature for 100 minutes. Fluorescence output was measured using FLIPR. Compounds were dissolved in DMSO and diluted to desired concentrations with assay buffer. 13.3 μL/well of compound solution was added.
In general terms: Calcium flux is commonly read through the fluorescence of an indicator in the cells.

The target in experiment [2] is T1, Human GPR40. Briefly: Inositol Phosphate Turnover (IP1) assay in HEK cells stably expressing human GPR40. The format is cell-based. Also on record: expressed in transfected cells; host or cells: HEK cells stably expressing the aequorin reporter. The protocol:
as §1
The assay was performed in 96-well format. HEK cells stably expressing human GPR40 were plated to be 60-80% confluent within 72 h. After 72 h, the plates were aspirated and the cells washed with inositol-free DMEM (ICN). The wash media was replaced with 150 μL of 3H-inositol labeling media (inositol-free media containing 0.4% human albumin or 0.4% mouse albumin, 1× pen/strep antibiotics, glutamine, 25 mM HEPES to which was added 3H-myo-inositol NEN #NET114A 1 mCi/mL, 25 Ci/mmol diluted 1:150 in loading media with a final specific radioactivity of 1 μCi/150 μL). Alternatively, the human and mouse albumin were added after the overnight labeling step before the addition of LiCl.
The assay was typically run the next day after 18 h labeling. On the day of the assay, 5 μL of 300 mM LiCl were added to all wells and incubated at 37 degrees for 20 min. 0.75 μL of 200× compounds were added and incubated with the cells for 60 min at 37 degrees. The media was then aspirated off and the assay terminated with the addition of 60 μL 10 mM formic acid. The cells were lysed for 60 min at room temperature. 15-30 μL of lysate was mixed with 70 μL/1 mg YSi SPA beads (Amersham) in clear bottom Isoplates. The plates were shaken for 2 h at room temperature. Beads were allowed to settle and the plates are counted in the Wallac Microbeta.

Bounds are passed on as bounds.

The EC50 is the concentration needed to bring the measured effect to its halfway point.

T1 sequence (O14842 whole entry): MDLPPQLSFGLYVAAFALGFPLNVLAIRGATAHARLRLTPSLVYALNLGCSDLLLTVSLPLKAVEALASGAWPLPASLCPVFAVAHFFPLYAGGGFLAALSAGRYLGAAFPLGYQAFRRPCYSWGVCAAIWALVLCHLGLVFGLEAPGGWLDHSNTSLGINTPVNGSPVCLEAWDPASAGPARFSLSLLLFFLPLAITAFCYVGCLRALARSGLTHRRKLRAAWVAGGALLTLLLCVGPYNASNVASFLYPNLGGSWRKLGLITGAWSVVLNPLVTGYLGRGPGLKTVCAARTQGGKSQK

As to `COc1ccc(F)c(-c2ccc3c(c2)CC[C@H]3Oc2cccc([C@@H](CC(=O)O)C3CC3)c2)c1` [Example 1], the EC50 on Human GPR40 [1] is 2 nM; on Human GPR40 [2], 64 nM.
The like results for `COc1ccc(F)c(-c2ccc3c(c2)CC[C@H]3Oc2cccc([C@H](C3CC3)[C@H](C)C(=O)O)c2)c1` [Example 2] were, in that order, 0.4 nM and 2.9 nM.
For `COc1ccc(F)c(-c2ccc3c(c2)CC[C@H]3Oc2cccc([C@H](C3CC3)[C@H](C)C(=O)O)c2F)c1` [Example 4], the EC50 on Human GPR40 [1] was determined as 0.2 nM; at Human GPR40 [2] it was 2.8 nM.
The like results for `COc1ccc(F)c(-c2ccc3c(c2)CC[C@H]3Oc2cccc([C@H](C3CC3)[C@@H](C)C(=O)O)c2F)c1` [Example 5] were, in that order, 8 nM and 154 nM.
Consider `COc1ccc(F)c(-c2ccc3c(c2C#N)CC[C@H]3Oc2cccc([C@@H](CC(=O)O)C3CC3)c2)c1` [Example 30], for which the EC50 at Human GPR40 [1] worked out at 22 nM; at Human GPR40 [2], 412 nM.
On the same counts, the results for `COc1ccc(F)c(-c2cc(F)c3c(c2)CC[C@H]3Oc2cccc([C@@H](CC(=O)O)C3CC3)c2)c1` [Example 31] are 36 nM and 2160 nM.
On the same counts, the results for `COc1ccc(F)c(-c2ccc3c(c2F)CC[C@H]3Oc2cccc([C@H](C3CC3)[C@H](C)C(=O)O)c2)c1` [Example 32] are 0.4 nM and 4.5 nM.
On the same counts, the results for `COc1ccc(F)c(-c2cc3c(cc2F)[C@H](Oc2cccc([C@@H](CC(=O)O)C4CC4)c2)CC3)c1` [Example 33] are 12 nM and 155 nM.
As to `COc1ccc(F)c(-c2ccc3c(c2F)CC[C@H]3Oc2cccc([C@@H](CC(=O)O)C3CC3)c2)c1` [Example 34], the EC50 on Human GPR40 [1] was 4 nM; on Human GPR40 [2] it was 107 nM.
The like results for `C[C@H](C(=O)O)[C@H](c1cccc(O[C@@H]2CCc3cc(-c4cc(O)ccc4F)ccc32)c1)C1CC1` [Example 35] were, in that order, 0.2 nM and 2.9 nM.
On the same counts, the results for `COc1ccc(F)c(-c2ccc3c(c2Cl)CC[C@H]3Oc2cccc([C@@H](CC(=O)O)C3CC3)c2)c1` [Example 36] are 7 nM and 357 nM.
Take `COc1ccc(F)c(-c2ccc3c(c2-c2cccc4ccn(C)c24)CC[C@H]3Oc2cccc([C@H](C3CC3)[C@H](C)C(=O)O)c2)c1` [Example 37]: the EC50 on Human GPR40 [1] is 1 nM; at Human GPR40 [2], 145 nM.
The like results for `COc1ccc(F)c(-c2ccc3c(n2)CC[C@H]3Oc2cccc([C@@H](CC(=O)O)C3CC3)c2)c1` [Example 38] were, in that order, 17 nM and 895 nM.
On the same counts, the results for `COc1ccc(F)c(-c2cc3c(cc2F)[C@H](Oc2cccc([C@@H](CC(=O)O)C4CC4)c2)CC3)c1` [Example 39] are 5 nM and 151 nM.
On the same counts, the results for `COc1ccc(F)c(-c2cnc3c(c2)CC[C@H]3Oc2cccc([C@H](C3CC3)[C@H](C)C(=O)O)c2)c1` [Example 40] are 2 nM and 91 nM.
`COc1ccc(F)c(-c2cc3c(cn2)[C@H](Oc2cccc([C@H](C4CC4)[C@H](C)C(=O)O)c2)CC3)c1` [Example 41]: the EC50 at Human GPR40 [1] is less than 0.2 nM; on Human GPR40 [2], 15 nM.
